Reference: US20130096321A1, “CRYSTALLINE ROTIGOTINE BASE AND PREPARATION PROCESS THEREFOR” (CHEMAGIS LTD., priority 2007, published 2013)

Test: Thermogravimetric analysis (TGA) of rotigotine base crystalline Form I
Assay type: physicochemical
Settings: platinum baskets, heating rate 5° C./minute, FIG. 4
Protocol: Rotigotine base crystalline form I produces a TGA curve as depicted in FIG. 4. […] The TGA measurement was performed using a TA instruments Q500 Thermal analyzer with Universal Software (version 3.88). Samples were analyzed inside platinum baskets at heating rate of 5° C./minute.

- decomposition on heating (from TGA curve): does not decompose on heating
- thermal stability (from TGA curve): thermally stable
Compound: CCCN(CCc1cccs1)[C@H]1CCc2c(O)cccc2C1 [crystalline rotigotine base Form I, (S)-(−)-5-hydroxy-2-(N-n-propyl-N-2-thienylethyl)-aminotetralin]
